According to ChEMBL document CHEMBL1126751, “Studies on quinazolines. 5. 2,3-dihydroimidazo[1,2-c]quinazoline derivatives: a novel class of potent and selective alpha 1-adrenoceptor antagonists and antihypertensive agents” (J Med Chem, 1993):
One block for each compound: values may come before it. Activity calls are given as the source filed them. The calls are words filed in the database; no cut-off is given here.

Legend:
Rattus norvegicus [1] = assay: Blood pressure lowering activity in spontaneously hypertensive rats (SHR) after 6 hours of administration (iv) of dose of 0.5 mg/kg […]; type: functional
[2] = target: T1, Adrenergic receptor alpha-1 (Rattus norvegicus, UniProt P15823+P23944+P43140); assay: Binding affinity against alpha-1 adrenergic receptor by measuring displacement of [3H]prazosin from rat brain cortex membranes (in vitro).; type: cell membranes, Membrane
T1 sequence (P15823 whole entry): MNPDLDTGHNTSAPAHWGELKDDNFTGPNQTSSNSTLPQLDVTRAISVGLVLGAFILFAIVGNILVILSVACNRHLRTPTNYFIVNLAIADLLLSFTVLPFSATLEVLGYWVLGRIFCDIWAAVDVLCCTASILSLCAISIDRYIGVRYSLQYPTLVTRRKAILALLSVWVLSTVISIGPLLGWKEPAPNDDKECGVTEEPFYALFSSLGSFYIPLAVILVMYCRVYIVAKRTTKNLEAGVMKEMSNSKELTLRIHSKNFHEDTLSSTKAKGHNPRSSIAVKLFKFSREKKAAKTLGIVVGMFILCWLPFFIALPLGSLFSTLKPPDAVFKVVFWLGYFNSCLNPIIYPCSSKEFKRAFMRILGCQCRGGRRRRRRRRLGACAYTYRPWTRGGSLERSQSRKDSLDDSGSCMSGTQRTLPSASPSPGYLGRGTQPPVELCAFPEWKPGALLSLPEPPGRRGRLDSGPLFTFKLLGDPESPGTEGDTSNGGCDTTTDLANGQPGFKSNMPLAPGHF
T1 sequence (P23944 whole entry): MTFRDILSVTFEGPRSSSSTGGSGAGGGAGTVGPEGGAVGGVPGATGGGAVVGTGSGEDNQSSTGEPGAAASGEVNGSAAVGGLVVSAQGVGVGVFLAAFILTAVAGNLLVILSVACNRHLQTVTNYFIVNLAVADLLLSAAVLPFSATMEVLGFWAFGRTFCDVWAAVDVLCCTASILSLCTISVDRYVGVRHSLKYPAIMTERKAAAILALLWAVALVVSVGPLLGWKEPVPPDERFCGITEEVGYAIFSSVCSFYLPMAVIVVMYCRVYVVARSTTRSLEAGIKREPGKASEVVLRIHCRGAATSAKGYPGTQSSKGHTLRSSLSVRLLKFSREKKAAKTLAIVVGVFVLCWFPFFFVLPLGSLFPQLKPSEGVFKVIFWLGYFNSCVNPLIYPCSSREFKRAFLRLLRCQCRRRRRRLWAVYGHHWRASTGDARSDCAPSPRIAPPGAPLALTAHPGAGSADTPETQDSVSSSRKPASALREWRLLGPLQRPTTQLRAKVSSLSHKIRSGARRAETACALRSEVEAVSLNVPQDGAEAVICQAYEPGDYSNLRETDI
T1 sequence (P43140 whole entry): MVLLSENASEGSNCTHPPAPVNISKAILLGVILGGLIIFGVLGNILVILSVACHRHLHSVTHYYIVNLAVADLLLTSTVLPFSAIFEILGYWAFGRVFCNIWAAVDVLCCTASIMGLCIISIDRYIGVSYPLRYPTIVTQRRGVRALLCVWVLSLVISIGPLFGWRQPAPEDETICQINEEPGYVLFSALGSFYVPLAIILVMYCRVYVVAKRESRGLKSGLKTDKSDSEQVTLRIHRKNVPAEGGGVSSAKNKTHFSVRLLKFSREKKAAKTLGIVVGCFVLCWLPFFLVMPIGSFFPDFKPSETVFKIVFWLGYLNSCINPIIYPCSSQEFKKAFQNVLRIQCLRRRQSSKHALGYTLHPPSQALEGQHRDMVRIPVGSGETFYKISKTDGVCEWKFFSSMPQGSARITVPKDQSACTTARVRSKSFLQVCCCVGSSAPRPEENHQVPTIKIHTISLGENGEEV

[3] = target: T1, Adrenergic receptor alpha-1; assay: Alpha-1 antagonistic activity against phenylephrine in rat aorta; type: functional, tissue-based
Rattus norvegicus [4] = assay: Blood pressure lowering activity in spontaneously hypertensive rats (SHR) after 1 hour of administration (iv) of dose of 0.5 mg/kg […]; type: functional
[5] = target: T2, Adrenergic receptor alpha-2 (Rattus norvegicus, UniProt P22086+P19328+P22909); assay: Binding affinity against alpha-2 adrenergic receptor by measuring displacement of [3H]clonidine from rat brain cortex membranes (in vitro).; type: cell membranes, Membrane
T2 sequence (P22086 whole entry): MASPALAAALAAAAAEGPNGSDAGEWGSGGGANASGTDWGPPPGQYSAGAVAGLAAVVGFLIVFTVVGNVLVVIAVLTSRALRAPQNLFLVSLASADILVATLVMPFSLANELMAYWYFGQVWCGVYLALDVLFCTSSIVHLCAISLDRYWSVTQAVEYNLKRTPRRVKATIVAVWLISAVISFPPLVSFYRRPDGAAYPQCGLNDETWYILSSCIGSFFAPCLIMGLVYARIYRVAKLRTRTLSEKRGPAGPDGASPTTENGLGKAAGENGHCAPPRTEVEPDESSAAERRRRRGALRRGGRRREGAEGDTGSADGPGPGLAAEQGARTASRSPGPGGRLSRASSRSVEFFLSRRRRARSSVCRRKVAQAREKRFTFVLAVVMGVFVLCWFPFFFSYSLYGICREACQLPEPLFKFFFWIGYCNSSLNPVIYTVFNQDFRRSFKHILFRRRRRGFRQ
T2 sequence (P19328 whole entry): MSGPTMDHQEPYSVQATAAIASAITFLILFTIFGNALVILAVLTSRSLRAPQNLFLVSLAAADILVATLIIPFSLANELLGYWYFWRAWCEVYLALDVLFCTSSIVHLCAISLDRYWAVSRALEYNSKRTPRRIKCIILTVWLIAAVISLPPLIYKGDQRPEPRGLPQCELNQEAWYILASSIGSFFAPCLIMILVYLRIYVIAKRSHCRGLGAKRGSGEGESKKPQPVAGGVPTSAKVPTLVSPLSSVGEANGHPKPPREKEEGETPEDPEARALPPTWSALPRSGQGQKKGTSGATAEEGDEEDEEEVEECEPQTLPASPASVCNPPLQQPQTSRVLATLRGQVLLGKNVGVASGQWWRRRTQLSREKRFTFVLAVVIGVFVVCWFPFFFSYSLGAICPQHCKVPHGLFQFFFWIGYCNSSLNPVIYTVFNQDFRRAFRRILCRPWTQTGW
T2 sequence (P22909 whole entry): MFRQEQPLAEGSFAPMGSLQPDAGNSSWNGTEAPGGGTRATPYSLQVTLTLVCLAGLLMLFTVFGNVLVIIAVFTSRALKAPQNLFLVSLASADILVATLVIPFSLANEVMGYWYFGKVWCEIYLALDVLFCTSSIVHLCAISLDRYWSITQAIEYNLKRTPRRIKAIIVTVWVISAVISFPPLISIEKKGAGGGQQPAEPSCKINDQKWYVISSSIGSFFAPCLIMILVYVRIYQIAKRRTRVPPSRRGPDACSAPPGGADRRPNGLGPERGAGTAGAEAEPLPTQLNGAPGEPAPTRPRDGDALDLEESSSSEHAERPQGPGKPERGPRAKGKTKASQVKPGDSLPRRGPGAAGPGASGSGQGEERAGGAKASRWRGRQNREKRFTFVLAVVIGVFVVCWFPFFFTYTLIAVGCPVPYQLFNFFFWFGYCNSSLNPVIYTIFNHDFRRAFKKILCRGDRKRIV

Rattus norvegicus [6] = assay: Blood pressure lowering activity in spontaneously hypertensive rats (SHR) after 6 hour of administration (iv) of dose of 4.0 mg/kg; Did not last more than 1/2 hr […]; type: functional, organism-based; set-up: dose 4 mg/kg
Rattus norvegicus [7] = assay: Blood pressure lowering activity in spontaneously hypertensive rats (SHR) after 1 hour of administration (iv) of dose of 4.0 mg/kg; Did not last more than 1/2 hr […]; type: functional, organism-based; set-up: dose 4 mg/kg
Rattus norvegicus [8] = assay: Blood pressure lowering activity in spontaneously hypertensive rats (SHR) after 1 hour of administration (iv) of dose of 0.5 mg/kg; Did not last more than 1/2 hr […]; type: functional, organism-based; set-up: dose 0.5 mg/kg
Rattus norvegicus [9] = assay: Blood pressure lowering activity in spontaneously hypertensive rats (SHR) after 6 hours of administration (iv) of dose of 0.5 mg/kg; Did not last more than 1/2 hr […]; type: functional, organism-based; set-up: dose 0.5 mg/kg
Rattus norvegicus [10] = assay: Blood pressure lowering activity in spontaneously hypertensive rats (SHR) after 1 hour of administration (iv) of dose of 1.0 mg/kg; type: functional
Rattus norvegicus [11] = assay: Blood pressure lowering activity in spontaneously hypertensive rats (SHR) after 1 hour of administration (iv) of dose of 0.5 mg/kg; type: functional
Rattus norvegicus [12] = assay: Blood pressure lowering activity in spontaneously hypertensive rats (SHR) after 6 hours of administration (iv) of dose of 0.5 mg/kg; type: functional
Rattus norvegicus [13] = assay: Blood pressure lowering activity in spontaneously hypertensive rats (SHR) after 6 hours of administration (iv) of dose of 1.0 mg/kg; type: functional
Rattus norvegicus [14] = assay: Blood pressure lowering activity in spontaneously hypertensive rats (SHR) after 6 hours of administration (iv) of dose of 4.0 mg/kg […]; type: functional
Rattus norvegicus [15] = assay: Blood pressure lowering activity in spontaneously hypertensive rats (SHR) after 1 hour of administration (iv) of dose of 4.0 mg/kg […]; type: functional

Ki [2]: 0.25 nM | pA2 [3]: 9.63 | Ki [5]: 1599 nM
Structure (SMILES): COc1ccccc1N1CCN(CCn2c(=O)[nH]c3ccccc3c2=O)CC1
MBP (Rattus norvegicus [1]): -31.7 mmHg | MBP (Rattus norvegicus [4]): -33.9 mmHg

Ki [2]: > 100 nM
Structure (SMILES): O=C1Nc2ccccc2C2=NC(CN3CCN(Cc4ccc5c(c4)OCO5)CC3)CN12 (centres undefined)
MBP (Rattus norvegicus [6]): inactive | MBP (Rattus norvegicus [7]): inactive

Ki [2]: 0.21 nM | Ki [5]: 593 nM
Structure (SMILES): COc1ccccc1N1CCN(CC2CN=C3c4ccccc4NC(=O)N32)CC1 (centres undefined)
MBP (Rattus norvegicus [8]): inactive | MBP (Rattus norvegicus [9]): inactive

Ki [2]: > 100 nM
Structure (SMILES): COc1ccc(N2CCN(CC3CN4C(=O)Nc5ccccc5C4=N3)CC2)cc1 (centres undefined)
MBP (Rattus norvegicus [6]): inactive | MBP (Rattus norvegicus [7]): inactive

Ki [2]: 10.5 nM | Ki [5]: 3334 nM
Structure (SMILES): CN1C(=O)N2CC(CN3CCN(c4ccccc4)CC3)N=C2c2ccccc21 (centres undefined)
MBP (Rattus norvegicus [8]): inactive | MBP (Rattus norvegicus [9]): inactive

Ki [2]: 1.1 nM | Ki [5]: 3166 nM
Structure (SMILES): O=C1Nc2ccccc2C2=NC(CN3CCN(c4ccccc4Cl)CC3)CN12 (centres undefined)
MBP (Rattus norvegicus [10]): -40.7 mmHg | MBP (Rattus norvegicus [11]): -25.5 mmHg | MBP (Rattus norvegicus [12]): -5.7 mmHg | MBP (Rattus norvegicus [13]): -12.6 mmHg

Ki [2]: 30 nM | Ki [5]: 1694 nM
Structure (SMILES): COc1cc2c(cc1OC)C1=NC(CN3CCN(c4ccccc4)CC3)CN1C(=O)N2 (centres undefined)
MBP (Rattus norvegicus [14]): -12.6 mmHg | MBP (Rattus norvegicus [15]): -38.2 mmHg
